Test results published in ChEMBL document CHEMBL5715954, “Silencing c-Myc translation as a therapeutic strategy through targeting PI3Kδ and CK1ε in hematological malignancies” (Blood, 2017).

Key:
Set-up in all cases: scale not given: the % may be the effect or the level left
[1] = target: T1, Serine/threonine-protein kinase ULK3 (Homo sapiens) (UniProt Q6PHR2); assay: Inhibition of human ULK3 assessed as enzyme activity at 1 uM using myelin basic protein as substrate preincubated for 20 mins followed by [gamma-33P]-ATP addition and measured after 120 mins by radiometric Hot-SpotSM Kinase assay relative to control
T1 sequence (whole entry): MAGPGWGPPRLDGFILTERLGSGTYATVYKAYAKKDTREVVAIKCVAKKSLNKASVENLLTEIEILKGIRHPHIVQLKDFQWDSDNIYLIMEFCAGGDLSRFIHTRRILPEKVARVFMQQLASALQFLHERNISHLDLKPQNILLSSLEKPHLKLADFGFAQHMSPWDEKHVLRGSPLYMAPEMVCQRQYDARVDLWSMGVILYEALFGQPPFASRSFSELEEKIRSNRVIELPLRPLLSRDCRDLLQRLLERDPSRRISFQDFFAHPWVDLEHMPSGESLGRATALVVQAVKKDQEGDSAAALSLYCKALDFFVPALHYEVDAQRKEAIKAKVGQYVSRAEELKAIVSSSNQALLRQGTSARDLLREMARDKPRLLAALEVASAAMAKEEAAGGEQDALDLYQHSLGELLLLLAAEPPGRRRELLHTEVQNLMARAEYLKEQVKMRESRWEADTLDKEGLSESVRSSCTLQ

[2] = target: Receptor tyrosine-protein kinase erbB-4 (Homo sapiens) (UniProt Q15303); assay: Inhibition of human ERBB4 assessed as enzyme activity at 1 uM using poly[Glu:Tyr] (4:1) as substrate preincubated for 20 mins followed by [gamma-33P]-ATP addition and measured after 120 mins by radiometric Hot-SpotSM Kinase assay relative to control
[3] = target: Serine/threonine-protein kinase 24 (Homo sapiens) (UniProt Q9Y6E0); assay: Inhibition of human MST3 assessed as enzyme activity at 1 uM using myelin basic protein as substrate preincubated for 20 mins followed by [gamma-33P]-ATP addition and measured after 120 mins by radiometric Hot-SpotSM Kinase assay relative to control
[4] = target: T2, MAP/microtubule affinity-regulating kinase 4 (Homo sapiens) (UniProt Q96L34); assay: Inhibition of human MARK4 assessed as enzyme activity at 1 uM using KKKVSRSGLYRSPSMPENLNRPR as substrate preincubated for 20 mins followed by [gamma-33P]-ATP addition and measured after 120 mins by radiometric Hot-SpotSM Kinase assay relative to control
T2 sequence (whole entry): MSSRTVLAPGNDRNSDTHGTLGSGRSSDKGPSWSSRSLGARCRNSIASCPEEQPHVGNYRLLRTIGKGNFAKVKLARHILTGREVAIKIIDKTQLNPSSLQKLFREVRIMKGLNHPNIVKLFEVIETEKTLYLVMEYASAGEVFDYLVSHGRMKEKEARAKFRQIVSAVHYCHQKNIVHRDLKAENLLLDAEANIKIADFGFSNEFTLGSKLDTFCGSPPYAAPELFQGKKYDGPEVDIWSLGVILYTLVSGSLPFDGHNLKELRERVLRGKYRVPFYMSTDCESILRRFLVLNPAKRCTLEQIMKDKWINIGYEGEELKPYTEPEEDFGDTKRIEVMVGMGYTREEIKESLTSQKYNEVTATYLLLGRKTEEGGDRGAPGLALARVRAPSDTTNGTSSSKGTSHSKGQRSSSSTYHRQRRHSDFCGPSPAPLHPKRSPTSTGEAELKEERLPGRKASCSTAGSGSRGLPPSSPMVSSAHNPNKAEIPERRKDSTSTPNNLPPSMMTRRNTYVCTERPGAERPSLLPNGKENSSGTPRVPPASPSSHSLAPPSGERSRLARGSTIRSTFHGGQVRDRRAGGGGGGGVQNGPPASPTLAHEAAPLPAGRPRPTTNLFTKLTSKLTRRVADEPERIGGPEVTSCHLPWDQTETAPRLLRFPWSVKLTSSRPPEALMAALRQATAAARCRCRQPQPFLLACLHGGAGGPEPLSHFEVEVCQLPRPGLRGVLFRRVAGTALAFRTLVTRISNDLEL

[5] = target: T3, Serine/threonine-protein kinase Nek5 (Homo sapiens) (UniProt Q6P3R8); assay: Inhibition of human NEK5 assessed as enzyme activity at 1 uM using myelin basic protein as substrate preincubated for 20 mins followed by [gamma-33P]-ATP addition and measured after 120 mins by radiometric Hot-SpotSM Kinase assay relative to control
T3 sequence (whole entry): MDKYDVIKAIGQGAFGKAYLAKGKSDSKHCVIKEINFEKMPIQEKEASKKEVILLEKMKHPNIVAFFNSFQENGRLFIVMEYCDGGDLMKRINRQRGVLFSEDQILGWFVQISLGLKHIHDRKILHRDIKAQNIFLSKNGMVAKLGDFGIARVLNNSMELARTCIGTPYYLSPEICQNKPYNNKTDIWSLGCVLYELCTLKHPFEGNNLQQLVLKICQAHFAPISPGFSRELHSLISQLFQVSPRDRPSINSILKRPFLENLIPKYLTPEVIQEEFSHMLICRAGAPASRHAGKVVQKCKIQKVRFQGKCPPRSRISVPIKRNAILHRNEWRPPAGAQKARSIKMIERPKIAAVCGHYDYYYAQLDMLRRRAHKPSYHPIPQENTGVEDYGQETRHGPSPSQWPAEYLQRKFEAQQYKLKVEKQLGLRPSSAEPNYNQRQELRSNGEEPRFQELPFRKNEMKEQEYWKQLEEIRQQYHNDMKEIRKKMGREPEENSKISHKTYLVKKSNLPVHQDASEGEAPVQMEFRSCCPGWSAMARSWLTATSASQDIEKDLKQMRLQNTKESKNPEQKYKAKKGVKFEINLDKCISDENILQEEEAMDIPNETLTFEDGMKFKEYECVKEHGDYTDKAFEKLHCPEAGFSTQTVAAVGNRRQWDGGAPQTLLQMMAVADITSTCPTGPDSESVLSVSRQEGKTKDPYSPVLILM

[6] = target: Tyrosine-protein kinase Lyn (Homo sapiens) (UniProt P07948); assay: Inhibition of human LYN assessed as enzyme activity at 1 uM using poly[Glu:Tyr] (4:1) as substrate preincubated for 20 mins followed by [gamma-33P]-ATP addition and measured after 120 mins by radiometric Hot-SpotSM Kinase assay relative to control
[7] = target: Angiopoietin-1 receptor (Homo sapiens) (UniProt Q02763); assay: Inhibition of human TIE2 assessed as enzyme activity at 1 uM using poly[Glu:Tyr] (4:1) as substrate preincubated for 20 mins followed by [gamma-33P]-ATP addition and measured after 120 mins by radiometric Hot-SpotSM Kinase assay relative to control
[8] = target: Calcium/calmodulin-dependent protein kinase type 1 (Homo sapiens) (UniProt Q14012); assay: Inhibition of human CAMK1a assessed as enzyme activity at 1 uM using KKALRRQETVDAL as substrate preincubated for 20 mins followed by [gamma-33P]-ATP addition and measured after 120 mins by radiometric Hot-SpotSM Kinase assay relative to control
Chain of Calcium/calmodulin-dependent protein kinase type 1 (Homo sapiens) (Q14012 whole entry, looked up): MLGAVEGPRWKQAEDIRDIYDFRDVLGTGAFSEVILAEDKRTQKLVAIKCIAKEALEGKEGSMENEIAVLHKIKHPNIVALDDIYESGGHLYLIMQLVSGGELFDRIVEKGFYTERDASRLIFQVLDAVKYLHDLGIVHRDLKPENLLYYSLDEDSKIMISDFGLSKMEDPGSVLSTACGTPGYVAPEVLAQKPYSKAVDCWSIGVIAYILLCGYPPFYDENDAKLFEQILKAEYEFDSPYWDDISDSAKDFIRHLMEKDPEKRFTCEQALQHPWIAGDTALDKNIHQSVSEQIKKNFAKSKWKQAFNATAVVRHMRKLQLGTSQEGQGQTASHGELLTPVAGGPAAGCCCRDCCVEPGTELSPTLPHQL

Chain of Serine/threonine-protein kinase 24 (Homo sapiens) (Q9Y6E0 whole entry, looked up): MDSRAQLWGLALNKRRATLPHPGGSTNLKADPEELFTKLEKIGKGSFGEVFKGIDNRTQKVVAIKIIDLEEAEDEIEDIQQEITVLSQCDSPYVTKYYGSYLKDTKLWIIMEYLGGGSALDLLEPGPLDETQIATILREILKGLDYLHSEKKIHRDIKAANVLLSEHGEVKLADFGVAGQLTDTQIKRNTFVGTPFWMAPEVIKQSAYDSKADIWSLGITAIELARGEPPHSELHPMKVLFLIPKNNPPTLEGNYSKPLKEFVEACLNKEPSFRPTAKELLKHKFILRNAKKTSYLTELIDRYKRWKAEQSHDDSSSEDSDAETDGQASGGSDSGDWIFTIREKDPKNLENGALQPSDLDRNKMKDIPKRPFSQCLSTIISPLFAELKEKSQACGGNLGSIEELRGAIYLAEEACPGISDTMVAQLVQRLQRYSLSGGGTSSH
Chain of Angiopoietin-1 receptor (Homo sapiens) (Q02763 whole entry): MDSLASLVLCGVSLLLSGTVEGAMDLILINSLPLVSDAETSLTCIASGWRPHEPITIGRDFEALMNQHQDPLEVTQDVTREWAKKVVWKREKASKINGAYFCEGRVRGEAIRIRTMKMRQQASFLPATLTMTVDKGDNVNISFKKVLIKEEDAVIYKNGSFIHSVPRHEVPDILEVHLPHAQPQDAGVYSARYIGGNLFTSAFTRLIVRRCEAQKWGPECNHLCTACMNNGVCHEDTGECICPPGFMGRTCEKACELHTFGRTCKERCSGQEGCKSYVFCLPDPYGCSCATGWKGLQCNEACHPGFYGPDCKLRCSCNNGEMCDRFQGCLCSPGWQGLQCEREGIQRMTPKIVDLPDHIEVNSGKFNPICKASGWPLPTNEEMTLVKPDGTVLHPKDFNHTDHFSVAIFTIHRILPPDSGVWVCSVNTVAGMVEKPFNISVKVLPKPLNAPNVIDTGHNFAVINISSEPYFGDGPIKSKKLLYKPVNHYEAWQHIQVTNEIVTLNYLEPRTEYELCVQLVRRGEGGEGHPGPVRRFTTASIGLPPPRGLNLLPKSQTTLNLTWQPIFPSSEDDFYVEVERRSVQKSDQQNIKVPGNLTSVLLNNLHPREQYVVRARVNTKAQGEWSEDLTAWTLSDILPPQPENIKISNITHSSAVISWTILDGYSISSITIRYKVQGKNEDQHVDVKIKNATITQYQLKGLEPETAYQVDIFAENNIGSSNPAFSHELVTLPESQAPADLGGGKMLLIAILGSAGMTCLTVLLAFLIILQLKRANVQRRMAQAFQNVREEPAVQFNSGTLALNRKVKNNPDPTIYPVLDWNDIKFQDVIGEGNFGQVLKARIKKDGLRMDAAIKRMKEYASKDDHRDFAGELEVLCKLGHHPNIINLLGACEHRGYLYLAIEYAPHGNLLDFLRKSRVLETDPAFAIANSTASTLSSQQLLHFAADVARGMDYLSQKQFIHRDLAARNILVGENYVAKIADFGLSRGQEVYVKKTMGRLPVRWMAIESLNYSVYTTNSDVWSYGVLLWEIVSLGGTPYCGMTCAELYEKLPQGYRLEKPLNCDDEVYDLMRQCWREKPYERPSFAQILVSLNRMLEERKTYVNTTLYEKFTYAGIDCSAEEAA
Chain of Receptor tyrosine-protein kinase erbB-4 (Homo sapiens) (Q15303 whole entry): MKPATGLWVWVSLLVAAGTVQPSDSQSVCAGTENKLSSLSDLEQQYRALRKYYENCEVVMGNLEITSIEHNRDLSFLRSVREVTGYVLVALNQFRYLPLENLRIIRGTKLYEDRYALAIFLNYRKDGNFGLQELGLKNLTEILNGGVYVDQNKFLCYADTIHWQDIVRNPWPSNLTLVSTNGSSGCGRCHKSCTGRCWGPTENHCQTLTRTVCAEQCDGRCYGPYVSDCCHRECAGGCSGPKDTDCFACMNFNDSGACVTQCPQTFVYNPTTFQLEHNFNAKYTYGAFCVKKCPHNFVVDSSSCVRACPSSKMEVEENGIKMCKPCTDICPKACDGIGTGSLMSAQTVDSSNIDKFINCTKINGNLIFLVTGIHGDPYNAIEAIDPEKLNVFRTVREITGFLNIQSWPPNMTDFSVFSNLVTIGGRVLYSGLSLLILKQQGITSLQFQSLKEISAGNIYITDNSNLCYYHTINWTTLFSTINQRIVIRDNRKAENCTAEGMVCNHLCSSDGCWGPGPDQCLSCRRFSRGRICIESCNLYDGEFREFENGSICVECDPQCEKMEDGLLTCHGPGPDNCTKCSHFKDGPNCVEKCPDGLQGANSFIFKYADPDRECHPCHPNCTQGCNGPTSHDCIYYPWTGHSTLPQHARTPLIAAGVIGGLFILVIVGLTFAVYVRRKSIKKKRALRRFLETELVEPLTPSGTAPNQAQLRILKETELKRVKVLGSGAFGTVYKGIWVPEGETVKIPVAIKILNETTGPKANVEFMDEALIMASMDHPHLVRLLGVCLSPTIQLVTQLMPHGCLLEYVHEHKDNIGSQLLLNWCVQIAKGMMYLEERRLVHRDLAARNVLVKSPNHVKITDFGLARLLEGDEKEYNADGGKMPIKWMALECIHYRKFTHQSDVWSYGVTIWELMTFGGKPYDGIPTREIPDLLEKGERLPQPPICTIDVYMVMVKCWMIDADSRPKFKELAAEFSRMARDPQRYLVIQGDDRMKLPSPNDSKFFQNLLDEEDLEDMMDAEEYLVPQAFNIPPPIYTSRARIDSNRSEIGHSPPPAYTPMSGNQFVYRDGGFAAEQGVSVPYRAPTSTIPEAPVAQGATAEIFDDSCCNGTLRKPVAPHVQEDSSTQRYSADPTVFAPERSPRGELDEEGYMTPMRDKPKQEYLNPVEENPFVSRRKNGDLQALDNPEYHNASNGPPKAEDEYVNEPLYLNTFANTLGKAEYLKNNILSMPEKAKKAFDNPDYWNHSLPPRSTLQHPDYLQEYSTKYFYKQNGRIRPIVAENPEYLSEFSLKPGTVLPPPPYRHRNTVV
Chain of Tyrosine-protein kinase Lyn (Homo sapiens) (P07948 2-512 limits assumed): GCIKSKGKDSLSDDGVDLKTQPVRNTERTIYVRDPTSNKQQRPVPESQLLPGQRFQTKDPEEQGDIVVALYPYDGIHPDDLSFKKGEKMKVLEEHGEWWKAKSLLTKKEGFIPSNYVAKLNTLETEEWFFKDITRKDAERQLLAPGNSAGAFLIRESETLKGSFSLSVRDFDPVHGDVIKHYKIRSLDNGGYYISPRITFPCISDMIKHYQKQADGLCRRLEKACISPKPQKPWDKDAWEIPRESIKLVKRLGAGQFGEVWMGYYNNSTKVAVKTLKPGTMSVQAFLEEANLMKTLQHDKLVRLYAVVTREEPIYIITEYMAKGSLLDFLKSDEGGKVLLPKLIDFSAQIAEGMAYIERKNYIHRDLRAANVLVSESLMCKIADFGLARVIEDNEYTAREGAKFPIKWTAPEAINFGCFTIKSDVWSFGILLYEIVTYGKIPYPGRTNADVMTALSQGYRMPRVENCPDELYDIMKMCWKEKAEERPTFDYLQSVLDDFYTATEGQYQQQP

C[C@H](Nc1ncnc2nc[nH]c12)c1cc2cccc(Cl)c2c(=O)n1-c1ccccc1
Activity [1]: 93.2%
Activity [2]: 97.4%
Activity [3]: 87.3%
Activity [4]: 109%
Activity [5]: 92.8%
Activity [6]: 100%
Activity [7]: 97.3%
Activity [8]: 103%

CC[C@H](Nc1ncnc2[nH]cnc12)c1nc2cccc(F)c2c(=O)n1-c1ccccc1
Activity [1]: 89.3%
Activity [2]: 101%
Activity [3]: 88.2%
Activity [4]: 97%
Activity [5]: 111%
Activity [6]: 95%
Activity [7]: 97.9%
Activity [8]: 96.8%

CC(C)Oc1ccc(-c2nn([C@@H](C)c3oc4ccc(F)cc4c(=O)c3-c3cccc(F)c3)c3ncnc(N)c23)cc1F [UMBRALISIB]
Activity [1]: 93.8%
Activity [2]: 101%
Activity [3]: 81.6%
Activity [4]: 112%
Activity [5]: 110%
Activity [6]: 96.4%
Activity [7]: 92%
Activity [8]: 99.6%
